Marks after values point to notes of the source that are not given here.

Data set [1] can be described thus: Absorption and fluorescence maxima with and without CB7. The arrangement: unit not given here. Type of data set: physicochemical. The source says: Addition of cucurbiturils leads to the formation of complexes with fluorescent dyes, which have changed photophysical properties, see examples in Table 3.
A short description of data set [2]: Fluorescence quantum yield and brightness with and without CB7. Type of data set: physicochemical. The arrangement: ε × φf (brightness): unit not given beside the values.
A short description of data set [3]: Photobleaching of aqueous dye solution under 532-nm Nd-YAG laser irradiation, monitored by UV-Vis absorption.
Procedure: The addition of cucurbituril (mixture of a plurality of cucurbiturils, wherein cucurbit[7]uril (formula (D), also known as CB7) was the predominant species according to mass spectrometry, with cucurbit[5]uril as a detectable impurity), concentration of cucurbit[7]uril 1-2 mM, mixture prepared as described in C. […] The photostabilisation of the fluorescent dye stabilised by cucurbituril (CB7) was monitored by the characteristic visible absorption band with a Varian Cary 50 UV-VIS spectrophotometer, based on a cucurbituril-free, optically adapted (at 532 nm) solution of the fluorescent dye. The UV-Vis spectra were recorded at different irradiation times (FIG. 1), and the decreasing absorption (A) at 532 nm was plotted against the pertinent function log([10^A0−1]/[10^A−1]). […] The concentrations with and without cucurbit[7]uril are not identical, but were so chosen that the absorbance at 532 nm was identical at the start of irradiation. The concentration of rhodamine 6G was lower in samples containing cucurbit[7]uril than in samples without cucurbit[7]uril owing to a higher extinction coefficient.
The quantum yield of the photobleaching was determined by means of the initial linear region of the graph (FIG. 2) of the ratio of the gradients S(D)/S(D+CB7)=εDφb(D)/[εD+CB7φb(D+CB7)], wherein εD+CB7 and εD are the extinction coefficient of the dye (D) with and without CB7 at the irradiation wavelength of 532 nm.
The chosen stabilisation factor was the ratio of the quantum yields of the photobleaching in the absence and presence of CB7.
Data set [4] can be described thus: Decrease of fluorescence intensity of dye solutions stored in daylight (ambient light). In kind it is physicochemical. The following applies: for Stabilisation factor: with 1 mM CB7, daylight; for fluorescence intensity after exposure to daylight: 300 hours. As for the experimental part: As an alternative, the decrease in the fluorescence intensity of the above-described solutions was determined by observing their fluorescence (Cary Eclipse Fluorometer, Varian) when the solutions were stored in daylight (ambient light). The fluorescence intensity remained unchanged over the observation period for the solution containing cucurbituril, whereas it felt markedly for the cucurbituril-free solution (FIG. 3), with approximate half-lives of about 80 to 390 hours, depending on the sample vessel.

The nature of data set [5]: Photostabilisation of fluorescent dyes by cucurbiturils (preliminary tests, tests carried out hitherto). The following applies: for photostabilisation by the use of a cucurbituril: in particular cucurbit[7]uril; for photostabilisation of conventional fluorescent dyes by the cucurbituril: preliminary tests, in particular xanthene and cyanine fluorescent dyes.
Data set [6] can be described thus: Decrease in photon count rate in fluorescence correlation spectroscopy (FCS) on a confocal microscope. Type of data set: physicochemical. The note with it: for relative photon count rate: irradiation for 2000 seconds; for count rate present: after 30 minutes irradiation, 10 nM dye. The procedure:
Aqueous solutions of fluorescent dyes (10 nM) with and without cucurbit[7]uril (1 mM) were also studied by fluorescence correlation spectroscopy (FCS) on a confocal microscope (Carl Zeiss LSM 510 Confocor 2), which is used for several applications relevant for biology, biochemistry and spectroscopy. 400 μl of each solution were transferred to an 8-chamber cover glass system and irradiated with the light of a CW laser. The decrease in the count rate, which is directly proportional to the mean fluorescence intensity of the sample, was measured against the irradiation time. […] Considerable photostabilisation can again be seen, because without cucurbit[7]uril less than 30%, but with cucurbit[7]uril still more than 90% of the count rate is present after 30 minutes. The observed photostabilisation factors are contained in Table 2 (footnotes b, c, d).
The photon count rate in samples containing cucurbit[7]uril fell during irradiation for 2000 seconds only to about 95%, while the […] of the cucurbit[7]uril-free sample fell to about 25% of the initial value in the same time.

Take `Cc1cc(=O)oc2c3c4c(cc12)CCCN4CCC3` [Coumarin-102, coumarin 102]: the λabs max in data set [1] (with 1 mM CB7) stood at 404.6; in data set [1] (without CB7) it was 392.6. The values for the λem max in data set [1] (with 1 mM CB7) and in data set [1] (without CB7) were 476.0 and 489.0, respectively. The “absorbance (extinction coefficient) and fluorescence quantum yield (intensity) in a complex with cucurbituril versus without” value in data set [2] is “greater”. In addition, the “ε × φf (brightness)” value in data set [2] (with 1 mM CB7) is given as 17807; in data set [2] (without CB7), 14388. Besides, the φf is on record as 0.754 in data set [2] (with 1 mM CB7) and 0.66 in data set [2] (without CB7).

Regarding `CCN1C(=CC=CC2=[N+](CC)c3ccc(S(=O)(=O)[O-])cc3C2(C)C)C(C)(C)c2cc(S(=O)(=O)O)ccc21` [Cyanine 3, cyanine 3], in data set [1] (with 1 mM CB7), the λabs max stood at 558.6 and the λem max is recorded as 571.0. In data set [1] (without CB7), this compound had a λabs max of 544.6 and a λem max of 560.0. In addition, in data set [2] (with 1 mM CB7), the “ε × φf (brightness)” value is listed as 11502 and the φf is 0.108. Also, in data set [2] (without CB7), the “ε × φf (brightness)” value is on record as 18000 and the φf came to 0.15.

Turning to `CCN1C(=CC=CC=CC2=[N+](CC)c3ccc(S(=O)(=O)[O-])cc3C2(C)C)C(C)(C)c2cc(S(=O)(=O)O)ccc21` [Cyanine 5, cyanine 5], the λabs max in data set [1] (with 1 mM CB7) came out at 642.2; in data set [1] (without CB7), 642.0. Besides, the λem max in data set [1] (with 1 mM CB7) is 657.0; in data set [1] (without CB7) it was 660.0. Moreover, in data set [2], the “absorbance (extinction coefficient) and fluorescence quantum yield (intensity) in a complex with cucurbituril versus without” value was “greater”. Besides, the “ε × φf (brightness)” value was 51000 in data set [2] (with 1 mM CB7) and 37260 in data set [2] (without CB7). The figures for the φf in data set [2] (with 1 mM CB7) and in data set [2] (without CB7) were 0.456 and 0.27, respectively.

As for `CCN=c1cc2oc3cc(NCC)c(C)cc3c(-c3ccccc3C(=O)OCC)c-2cc1C.Cl` [Rhodamine 6G, rhodamine 6G], the Stabilisation factor was 30.0^a in data set [3] (1 mM CB7, 3 μM dye solutions, 532-nm laser light (1.3 W, 10 Hz) of a Nd-YAG laser); 7.5* in data set [3] (with 1 mM CB7, high laser power (2.1 W), 532 nm); 30* in data set [3] (with 1 mM CB7, low laser power (1.3 W), 532 nm); >500* in data set [4] (quartz cuvette); >5000* in data set [4] (screw-top glass bottle). For the same compound, the entries for the “number of absorption cycles before a molecule decomposes” value in data set [3] (with addition of cucurbit[7]uril (CB7 solution)) and in data set [3] (without cucurbit[7]uril) were 22 million and 0.8 million, respectively. Further, the λabs max in data set [1] (with 1 mM CB7) is 534.6; in data set [1] (without CB7) it was 526.0. Also, the λem max in data set [1] (with 1 mM CB7) is 555.0; in data set [1] (without CB7), 552.0. Further, the results for the “ε × φf (brightness)” value in data set [2] (with 1 mM CB7) and in data set [2] (without CB7) were 81594 and 71218, respectively. Further, the figures for the φf in data set [2] (with 1 mM CB7) and in data set [2] (without CB7) were 0.883 and 0.89, respectively. Moreover, the “fluorescence intensity after exposure to daylight” value is “hardly decreases at all” in data set [4] (with cucurbit[7]uril in glass bottles); 60 % of the original value in data set [4] (without cucurbit[7]uril, glass bottle); 90 % of the original value in data set [4] (without cucurbit[7]uril, quartz cuvettes). Besides, in data set [5], the “photostabilisation by the use of a cucurbituril” value (“photostabilisation by the use” for short) is given as “Particularly good photostabilisation”.

On to `CN(C)c1ccc2c(-c3ccccc3C(=O)[O-])c3ccc(N(C)C)cc3[o+]c2c1` [Tetramethylrhodamine, tetramethylrhodamine], for which the values for the λabs max in data set [1] (with 1 mM CB7) and in data set [1] (without CB7) were 558.6 and 552.6, respectively. The λem max in data set [1] (with 1 mM CB7) was 582.0; in data set [1] (without CB7), 577.0. For the same compound, the “ε × φf (brightness)” value in data set [2] (with 1 mM CB7) is reported as 20277; in data set [2] (without CB7) it was 17553. Further, the φf in data set [2] (with 1 mM CB7) was determined as 0.271; in data set [2] (without CB7), 0.20. Also, the “photostabilisation by the use” value in data set [5] is on record as “Particularly good photostabilisation”. Further, the Stabilisation factor in data set [6] (1 mM CB7, 10 nM dye solutions, 514-nm laser light (30 mW, cw), FCS, after 35 minutes, via photon count rate) is given as 4.3^b. For the same compound, the figures for the “relative photon count rate” value in data set [6] (cucurbit[7]uril-free sample) and in data set [6] (with cucurbit[7]uril) were “about 25 % of the initial value” and “about 95 % of the initial value”, respectively. Besides, the values for the count rate present entry in data set [6] (with cucurbit[7]uril (1 mM)) and in data set [6] (without cucurbit[7]uril) were “more than 90%” and “less than 30%”, respectively.

Take `Cc1c(C)c2cc3c4c(c2oc1=O)CCCN4CCC3` [coumarin 39]: in data set [5], the “photostabilisation by the use” value is given as “Particularly good photostabilisation”.

For the compound `O=C1N2CN3C(=O)N4CN5C(=O)N6CN7C(=O)N8CN9C(=O)N%10CN1C1C2N2CN%11C(=O)N(CN%12C(=O)N(CN%13C(=O)N(CN%14C(=O)N(CN1C2=O)C%10C%149)[C@H]8[C@H]7%13)[C@H]6[C@H]5%12)C4C3%11` (some centres unmarked) [cucurbit[5]uril], the “photostabilisation of conventional fluorescent dyes by the cucurbituril” value (shortened to “photostabilisation … by the cucurbituril”) in data set [5] is on record as “best photostabilisation”.

For `O=C1N2CN3C(=O)N4CN5C(=O)N6CN7C(=O)N8CN9C(=O)N%10CN%11C(=O)N%12CN1C1C2N2CN%13C(=O)N(CN%14C(=O)N(CN%15C(=O)N(CN%16C(=O)N(CN%17C(=O)N(CN1C2=O)C%12C%11%17)C%10C9%16)C8C7%15)C6C5%14)C4C3%13` (centres unmarked) [cucurbit[6]uril], the “photostabilisation … by the cucurbituril” value in data set [5] is “best photostabilisation”.

For the compound `O=C1N2CN3C(=O)N4CN5C(=O)N6CN7C(=O)N8CN9C(=O)N%10CN%11C(=O)N%12CN%13C(=O)N%14CN%15C(=O)N%16CN1C1C2N2CN%17C(=O)N(CN%18C(=O)N(CN%19C(=O)N(CN%20C(=O)N(CN%21C(=O)N(CN%22C(=O)N(CN%23C(=O)N(CN1C2=O)C%16C%15%23)C%14C%13%22)C%12C%11%21)C%10C9%20)C8C7%19)C6C5%18)C4C3%17` (centres unmarked) [cucurbit[8]uril], the “photostabilisation … by the cucurbituril” value in data set [5] is on record as “best photostabilisation”.

For the compound `O=C1OC2(c3ccc(O)cc3Oc3cc(O)ccc32)c2ccccc21` [fluorescein], the “improvement in photostability by cucurbiturils according to formulae (B) to (E)” value in data set [5] (anionic fluorescent dye) was “only a slight or no improvement”.

Turning to rhodamine 123, the “number of absorption cycles before a molecule decomposes” value in data set [3] (without cucurbit[7]uril) was found to be 1.6 million. Moreover, in data set [1] (with 1 mM CB7), the λabs max is 502.6 and the λem max is 532.0. For the same compound, in data set [1] (without CB7), the λabs max worked out at 500.0 and the λem max was 525.0. In data set [2] (with 1 mM CB7), the “ε × φf (brightness)” value is 24097 and the φf turned out to be 0.362. Besides, in data set [2] (without CB7), the “ε × φf (brightness)” value was determined as 57470 and the φf was found to be 0.83. Besides, in data set [5], the “photostabilisation by the use” value is “Particularly good photostabilisation”.

The record behind these values is patent publication US7511284B2, “Photostabilisation of fluorescent dyes” (International University Bremen GmbH, priority 2004, dated 2009).
